{
  "source": "patent US10351547B2",
  "about": "“Somatostatin modulators and uses thereof” (priority 2016, dated 2019)",
  "data": [
    {"target": "human SSTR2 (Homo sapiens (Human), UniProt P30874)", "sequence (P30874 whole entry)": "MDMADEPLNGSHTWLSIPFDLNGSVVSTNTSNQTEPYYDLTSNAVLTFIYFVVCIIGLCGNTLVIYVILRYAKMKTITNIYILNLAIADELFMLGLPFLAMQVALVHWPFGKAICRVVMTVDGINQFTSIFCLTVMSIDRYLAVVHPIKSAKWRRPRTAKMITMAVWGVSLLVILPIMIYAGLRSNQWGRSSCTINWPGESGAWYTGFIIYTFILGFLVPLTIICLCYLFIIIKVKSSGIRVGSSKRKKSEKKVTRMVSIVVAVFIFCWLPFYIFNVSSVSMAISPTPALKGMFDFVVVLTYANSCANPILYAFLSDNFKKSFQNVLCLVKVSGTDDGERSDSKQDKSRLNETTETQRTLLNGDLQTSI", "assay": "Human SSTR2 intracellular cAMP functional assay for agonists (HTRF)", "assay_type": "cell-based", "settings": "not given", "in_short": "(§1)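 Cells bearing human SSTR2 exposed to compound for 20 minutes at 37 °C; after lysis, cAMP measured by time-resolved fluorescence (HTRF) and converted via a standard curve. EC50 calculated from cAMP versus compound concentration.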", "units": {"EC50": "nM"}, "values": [
      {"smiles": "N#Cc1cc(F)cc(-c2ccc3ncc(-c4cc(F)cc(F)c4)c(N4CC(CN)C4)c3c2)c1O", "note": "[2-23, 3-{4-[3-(aminomethyl)azetidin-1-yl]-3-(3,5-difluorophenyl)quinolin-6-yl}-5-fluoro-2-hydroxybenzonitrile]", "EC50": "100 to 1000"},
      {"smiles": "N#Cc1cccc(-c2ccc3nnc(-c4cc(F)cc(F)c4)c(N4CCC(N)CC4)c3c2)c1O", "note": "[1-20, 3-[4-(4-aminopiperidin-1-yl)-3-(3,5-difluorophenyl)cinnolin-6-yl]-2-hydroxybenzonitrile]", "EC50": "10 to 100"},
      {"smiles": "CO[C@H]1CN(c2c(-c3cc(F)cc(F)c3)cnc3ccc(-c4cccc(C#N)c4O)cc23)CC[C@H]1N", "note": "[2-61, 3-{4-[(3S,4R)-4-amino-3-methoxypiperidin-1-yl]-3-(3,5-difluorophenyl)quinolin-6-yl}-2-hydroxybenzonitrile]", "EC50": "10 to 100"},
      {"smiles": "NC1CCN(c2c(-c3cc(F)cc(F)c3)cnc3ccc(-c4cccc(C(N)C(F)(F)F)c4)cc23)CC1", "note": "(stereo not shown) [2-132, 1-{6-[3-(1-amino-2,2,2-trifluoroethyl)phenyl]-3-(3,5-difluorophenyl)quinolin-4-yl}piperidin-4-amine]", "EC50": "10 to 100"},
      {"smiles": "CONC(=O)Nc1nccc(C)c1-c1ccc2ncc(-c3cc(C)cc(F)c3)c(N3CCC(N)CC3)c2c1", "note": "[2-215, 1-{3-[4-(4-aminopiperidin-1-yl)-3-(3-fluoro-5-methylphenyl)quinolin-6-yl]-4-methylpyridin-2-yl}-3-methoxyurea]", "EC50": "10 to 100"},
      {"smiles": "Cc1cc(F)cc(-c2cnc3ccc(-c4cc(F)cc(C(N)=O)c4)cc3c2N2CC(C)(CN)C2)c1", "note": "[2-14, 3-{4-[3-(aminomethyl)-3-methylazetidin-1-yl]-3-(3-fluoro-5-methylphenyl)quinolin-6-yl}-5-fluorobenzamide]", "EC50": "10 to 100"},
      {"smiles": "CON=Cc1c(F)cccc1-c1ccc2ncc(-c3cc(F)cc(F)c3)c(N3CCC(N)CC3)c2c1", "note": "[2-129, 1-[3-(3,5-difluorophenyl)-6-{3-fluoro-2-[(methoxyimino)methyl]phenyl}quinolin-4-yl]piperidin-4-amine]", "EC50": "10 to 100"},
      {"smiles": "CS(=O)(=O)Nc1c(F)cc(F)cc1-c1ccc2ncc(-c3cc(F)cc(F)c3)c(N3CCC(N)CC3)c2c1", "note": "[2-86, N-{2-[4-(4-aminopiperidin-1-yl)-3-(3,5-difluorophenyl)quinolin-6-yl]-4,6-difluorophenyl}methanesulfonamide]", "EC50": "100 to 1000"},
      {"smiles": "CCON=Cc1cc(F)cc(-c2cnc3ccc(-c4cccc(C#N)c4O)cc3c2N2CCC(N)CC2)c1", "note": "[2-79, 3-[4-(4-aminopiperidin-1-yl)-3-{3-[(ethoxyimino)methyl]-5-fluorophenyl}quinolin-6-yl]-2-hydroxybenzonitrile]", "EC50": "100 to 1000"}
    ]},
    {"target": "human SSTR2 (Homo sapiens (Human), UniProt P30874)", "assay": "Human SSTR2 intracellular cAMP functional assay for agonists (HTRF)", "assay_type": "cell-based", "settings": "CHO-K1 cells stably expressing human SSTR2; NKH477-stimulated cAMP; read-out: EC50 (inhibition of cAMP activities via human SST2R)", "in_short": "as §1", "units": {"EC50": "nM"}, "values": [
      {"smiles": "Cc1cc(F)cc(-c2nnc3cc(Cl)c(-c4cc(F)cc(C(N)=O)c4)cc3c2N2CC[C@H](N)[C@H](F)C2)c1", "note": "(relative stereo) [1-6, 3-{4-[cis-4-amino-3-fluoropiperidin-1-yl]-7-chloro-3-(3-fluoro-5-methylphenyl)cinnolin-6-yl}-5-fluorobenzamide]", "EC50": "< 10"},
      {"smiles": "Cn1cc(-c2ccc3ncc(-c4cc(F)cc(F)c4)c(N4CC[C@H]5NCCO[C@@H]5C4)c3c2)c(C(N)=O)n1", "note": "(relative stereo) [2-257, 4-{4-[trans-octahydro-1H-pyrido[3,4-b]morpholin-6-yl]-3-(3,5-difluorophenyl)quinolin-6-yl}-1-methyl-1H-pyrazole-3-carboxamide]", "EC50": "10 to 100"},
      {"smiles": "COC(=O)Nc1c(F)cccc1-c1ccc2ncc(-c3cc(C)cc(F)c3)c(N3CCC(N)CC3)c2c1", "note": "[2-209, methyl N-{2-[4-(4-aminopiperidin-1-yl)-3-(3-fluoro-5-methylphenyl)quinolin-6-yl]-6-fluorophenyl}carbamate]", "EC50": "< 10"},
      {"smiles": "Cc1cc(F)cc(-c2nnc3cc(Cl)c(-c4ccc5[nH]c(=O)[nH]c5c4)cc3c2N2CCC(N)CC2)c1", "note": "[1-8, 5-[4-(4-aminopiperidin-1-yl)-7-chloro-3-(3-fluoro-5-methylphenyl)cinnolin-6-yl]-2,3-dihydro-1H-1,3-benzodiazol-2-one]", "EC50": "< 10"},
      {"smiles": "N#Cc1cccc(-c2ccc3ncc(-c4cc(F)cc(F)c4)c(N4CCC(N)CC4)c3c2)c1N", "note": "[2-77, 2-amino-3-[4-(4-aminopiperidin-1-yl)-3-(3,5-difluorophenyl)quinolin-6-yl]benzonitrile]", "EC50": "< 10"},
      {"smiles": "CONC(=O)Nc1ccc(C#N)cc1-c1ccc2ncc(-c3cc(F)cc(F)c3)c(N3CCC(N)CC3)c2c1", "note": "[2-189, 1-{2-[4-(4-aminopiperidin-1-yl)-3-(3,5-difluorophenyl)quinolin-6-yl]-4-cyanophenyl}-3-methoxyurea]", "EC50": "< 10"},
      {"smiles": "Cc1cc(F)cc(-c2cnc3ccc(-c4cc(F)cc(C#N)c4O)cc3c2N2CC(CNCCCO)C2)c1", "note": "[2-54, 5-fluoro-3-[3-(3-fluoro-5-methylphenyl)-4-(3-{[(3-hydroxypropyl)amino]methyl}azetidin-1-yl)quinolin-6-yl]-2-hydroxybenzonitrile]", "EC50": "< 10"},
      {"smiles": "Cc1cc(F)cc(-c2cnc3ccc(-c4cc(F)cc(C#N)c4O)cc3c2N2CC[C@H](N)[C@H](O)C2)c1", "note": "(relative stereo) [2-219, cis-3-{4-[4-amino-3-hydroxypiperidin-1-yl]-3-(3-fluoro-5-methylphenyl)quinolin-6-yl}-5-fluoro-2-hydroxybenzonitrile]", "EC50": "< 10"},
      {"smiles": "COCC(=O)Nc1c(F)cc(F)cc1-c1ccc2ncc(-c3cc(C)cc(F)c3)c(N3CCC(N)CC3)c2c1", "note": "[2-230, N-{2-[4-(4-aminopiperidin-1-yl)-3-(3-fluoro-5-methylphenyl)quinolin-6-yl]-4,6-difluorophenyl}-2-methoxyacetamide]", "EC50": "< 10"},
      {"smiles": "COC(=O)Nc1c(Cl)cncc1-c1ccc2ncc(-c3cc(C)cc(F)c3)c(N3CCC(N)CC3)c2c1", "note": "[2-184, methyl N-{3-[4-(4-aminopiperidin-1-yl)-3-(3-fluoro-5-methylphenyl)quinolin-6-yl]-5-chloropyridin-4-yl}carbamate]", "EC50": "< 10"},
      {"smiles": "NC1CCN(c2c(-c3cc(F)cc(F)c3)cnc3ccc(-c4cccc(F)c4C=NO)cc23)CC1", "note": "[2-126, 1-[3-(3,5-difluorophenyl)-6-{3-fluoro-2-[(hydroxyimino)methyl]phenyl}quinolin-4-yl]piperidin-4-amine]", "EC50": "< 10"},
      {"smiles": "N#Cc1cc(F)cc(-c2ccc3ncc(-c4cc(F)cc(F)c4)c(N4CC[C@H](N)[C@H](O)C4)c3c2)c1O", "note": "(relative stereo) [2-63, 3-{4-[cis-4-amino-3-hydroxypiperidin-1-yl]-3-(3,5-difluorophenyl)quinolin-6-yl}-5-fluoro-2-hydroxybenzonitrile]", "EC50": "< 10"},
      {"smiles": "COC(=O)[C@@H]1CN(c2c(-c3cc(F)cc(F)c3)cnc3ccc(-c4cccc(C#N)c4O)cc23)CC[C@H]1N", "note": "(relative stereo) [2-143, methyl trans-4-amino-1-[6-(3-cyano-2-hydroxyphenyl)-3-(3,5-difluorophenyl)quinolin-4-yl]piperidine-3-carboxylate]", "EC50": "< 10"},
      {"smiles": "CON=Cc1cc(F)cc(-c2ccc3ncc(-c4cc(C)cc(F)c4)c(N4CCC(N)CC4)c3c2)c1O", "note": "[2-116, 2-[4-(4-aminopiperidin-1-yl)-3-(3-fluoro-5-methylphenyl)quinolin-6-yl]-4-fluoro-6-[(methoxyimino)methyl]phenol]", "EC50": "< 10"},
      {"smiles": "COc1cc(F)cc(-c2cnc3ccc(-c4cccc(F)c4C=NO)cc3c2N2CCC(N)CC2)c1", "note": "[2-166, 1-(6-{3-fluoro-2-[(hydroxyimino)methyl]phenyl}-3-(3-fluoro-5-methoxyphenyl)quinolin-4-yl)piperidin-4-amine]", "EC50": "< 10"},
      {"smiles": "N#CCOc1c(C#N)cccc1-c1ccc2ncc(-c3cc(F)cc(F)c3)c(N3CCC(N)CC3)c2c1", "note": "[2-231, 3-[4-(4-aminopiperidin-1-yl)-3-(3,5-difluorophenyl)quinolin-6-yl]-2-(cyanomethoxy)benzonitrile]", "EC50": "< 10"},
      {"smiles": "Cc1cc(F)cc(-c2cnc3ncc(-c4cccc(C#N)c4O)cc3c2N2CCC(N)CC2)c1", "note": "[4-2, 3-[5-(4-aminopiperidin-1-yl)-6-(3-fluoro-5-methylphenyl)-1,8-naphthyridin-3-yl]-2-hydroxybenzonitrile]", "EC50": "< 10"},
      {"smiles": "Cc1cc(F)cc(-c2cnc3ccc(-c4cc(F)cc(C#N)c4O)cc3c2N2CCC(N)CC2)c1", "note": "[2-16, 3-[4-(4-aminopiperidin-1-yl)-3-(3-fluoro-5-methylphenyl)quinolin-6-yl]-5-fluoro-2-hydroxybenzonitrile]", "EC50": "< 10"},
      {"smiles": "Cc1cc(F)cc(-c2cnc3ccc(-c4cc(F)cc(C#N)c4O)cc3c2N2CC(CNC3CC3)C2)c1", "note": "[2-29, 3-[4-(3-cyclopropylaminomethyl-azetidin-1-yl)-3-(3-fluoro-5-methyl-phenyl)-quinolin-6-yl]-5-fluoro-2-hydroxy-benzonitrile]", "EC50": "< 10"},
      {"smiles": "COCCNCC1CN(c2c(-c3cc(C)cc(F)c3)cnc3ccc(-c4cc(F)cc(C#N)c4O)cc23)C1", "note": "[2-27, 3-[3-(3-fluoro-5-methylphenyl)-4-(3-{[(2-methoxyethyl)amino]methyl}azetidin-1-yl)quinolin-6-yl]-5-fluoro-2-hydroxybenzonitrile]", "EC50": "< 10"},
      {"smiles": "COCCOc1c(C#N)cc(F)cc1-c1ccc2ncc(-c3cc(C)cc(F)c3)c(N3CCC(N)CC3)c2c1", "note": "[2-204, 3-[4-(4-aminopiperidin-1-yl)-3-(3-fluoro-5-methylphenyl)quinolin-6-yl]-5-fluoro-2-(2-methoxyethoxy)benzonitrile]", "EC50": "< 10"},
      {"smiles": "Cc1cc(F)cc(-c2nnc3ccc(-c4cccc(C#N)c4O)cc3c2N2CCC(N)CC2)c1", "note": "[1-17, 3-[4-(4-aminopiperidin-1-yl)-3-(3-fluoro-5-methylphenyl)cinnolin-6-yl]-2-hydroxybenzonitrile]", "EC50": "< 10"},
      {"smiles": "Cc1cc(F)cc(-c2cnc3ncc(-c4cc(F)cc(C#N)c4O)cc3c2N2CCC(N)CC2)c1", "note": "[4-3, 3-[5-(4-aminopiperidin-1-yl)-6-(3-fluoro-5-methylphenyl)-1,8-naphthyridin-3-yl]-5-fluoro-2-hydroxybenzonitrile]", "EC50": "< 10"},
      {"smiles": "Cc1cc(F)cc(-c2cnc3ccc(-c4cn(C)nc4N)cc3c2N2CCC(N)CC2)c1", "note": "[2-211, 1-[6-(3-amino-1-methyl-1H-pyrazol-4-yl)-3-(3-fluoro-5-methylphenyl)quinolin-4-yl]piperidin-4-amine]", "EC50": "< 10"},
      {"smiles": "CONC(=O)Nc1ccc(C#N)cc1-c1ccc2ncc(-c3cc(C)cc(F)c3)c(N3CCC(N)CC3)c2c1", "note": "[2-222]", "EC50": "< 10"}
    ]}
  ]
}
